Experimental findings from patent US9315494B2, “Alkyl-amide-substituted pyridyl compounds useful as modulators of IL-12, IL-23 and/or IFNα responses” (Bristol-Myers Squibb Company, priority 2012, dated 2016) are described below.

pIC50: −log10 of the molar value. Read-outs that look alike come from different tables or passages of the source.

Assay [1] relates to IFNα-stimulated STAT-dependent luciferase reporter in Kit225 T cells. Put plainly: Kit225 T cell assay, IFNα stimulated STAT-dependent luciferase reporter. The class given is cell-based, human. The method in brief:
(§1)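 Stimulus was either 200 U/mL human recombinant IFNα or 20 ng/mL IL-23, applied for 5-6 h to reporter-bearing Kit225 T cells grown in RPMI/10% FBS. Luciferase expression then quantified by luminescent assay.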
On the technique in general: A reporter such as luciferase makes a cellular process visible.

The subject of assay [2] is IL-23-stimulated STAT-dependent luciferase reporter in Kit225 T cells. Put plainly: Kit225 T cell assay, IL-23 stimulated STAT-dependent luciferase reporter. The class given is cell-based, human. The method in brief:
as §1

Setting [3] is: Kit225 T cells, 200 U/mL human recombinant IFNα, 5-6 hours, luciferase, read-out: IFNα (Kit225 T Cell Inhibition Data).
Where [4] appears, read: Kit225 T cells, 20 ng/mL human recombinant IL-23, 5-6 hours, luciferase, read-out: IL23 (Kit225 T Cell Inhibition Data).
Setting [5] is: Homo sapiens, KIT225, read-out: IFNα (Kit225 T Cell Inhibition Data).
Setting [6] is: Homo sapiens, KIT225, read-out: IL23 (Kit225 T Cell Inhibition Data).

On to `CNC(=O)c1cnc(Nc2ccc(F)cn2)cc1Nc1cccc(C(=O)NC2CC2)c1OC` [Example 317], for which the pIC50 in assay [1] (setting [3]) was 6.96; in assay [2] (setting [4]), 6.68.

For `CNC(=O)c1cnc(Nc2cc(C)c(F)cn2)cc1Nc1cccc(C(=O)NC2CC2)c1OC` [Example 318], the pIC50 in assay [1] (setting [3]) and in assay [2] (setting [4]) was 6.89 each time.

As to `CNC(=O)c1cnc(Nc2cc(C)c(F)cn2)cc1Nc1cccc(C(N)=O)c1OC` [Example 319], the pIC50 in assay [1] (setting [3]) is 8.00; in assay [2] (setting [4]) it was 7.05.

Consider `CNC(=O)c1cnc(Nc2cc(C)c(F)cn2)cc1Nc1cccc(C(=O)NC)c1OC` [Example 320], for which the pIC50 in assay [1] (setting [3]) is 7.52; in assay [2] (setting [4]) it was 7.30.

With `CNC(=O)c1cnc(Nc2cc(C)c(F)cn2)cc1Nc1cccc(C(=O)NCCN2CCOCC2)c1OC` [Example 322], the pIC50 was 7.52 in assay [1] (setting [3]) and 7.15 in assay [2] (setting [4]).

Take `CNC(=O)c1cnc(Nc2cc(C)c(F)cn2)cc1Nc1cccc(C(=O)NCC2CC2)c1OC` [Example 324]: the pIC50 in assay [1] (setting [3]) is 7.15; in assay [2] (setting [4]) it was 6.66.

In the case of `CNC(=O)c1cnc(Nc2cc(C)c(F)cn2)cc1Nc1cccc(C(=O)Nc2ccccc2)c1OC` [Example 328], the figures for the pIC50 in assay [1] (setting [3]) and in assay [2] (setting [4]) were 6.92 and 6.22, respectively.

On to `CNC(=O)c1cnc(Nc2cc(C)c(F)cn2)cc1Nc1cccc(C(=O)NCC(O)c2ccccc2)c1OC` (stereo not drawn) [Example 331], for which the pIC50 in assay [1] (setting [3]) is 7.40; in assay [2] (setting [4]), 7.22.

As to `CNC(=O)c1cnc(Nc2cc(C)c(F)cn2)cc1Nc1cccc(C(=O)NCC2CCC2)c1OC` [Example 332], the pIC50 is 6.89 in assay [1] (setting [3]) and 6.42 in assay [2] (setting [4]).

As to `CNC(=O)c1cnc(Nc2cc(C)c(F)cn2)cc1Nc1cccc(C(=O)NCCC(C)(C)O)c1OC` [Example 333], the pIC50 in assay [1] (setting [3]) is 7.05; in assay [2] (setting [4]), 6.92.

Regarding `CNC(=O)c1cnc(Nc2cc(C)c(F)cn2)cc1Nc1cccc(C(=O)NCCO)c1OC` [Example 336], the pIC50 in assay [1] (setting [3]) was 6.36; in assay [2] (setting [4]) it was 6.40.

Regarding `CNC(=O)c1cnc(Nc2cc(C)c(F)cn2)cc1Nc1cccc(C(=O)NCCc2ccccc2)c1OC` [Example 337], the pIC50 in assay [1] (setting [3]) was 7.10; in assay [2] (setting [4]) it was 6.96.

As to `CNC(=O)c1cnc(Nc2cc(C)c(F)cn2)cc1Nc1cccc(C(=O)NCCC(C)C)c1OC` [Example 338], the values for the pIC50 in assay [1] (setting [3]) and in assay [2] (setting [4]) were 6.96 and 6.40, respectively.

Take `CCCNC(=O)c1cccc(Nc2cc(Nc3cc(C)c(F)cn3)ncc2C(=O)NC)c1OC` [Example 339]: the pIC50 in assay [1] (setting [3]) was 7.52; in assay [2] (setting [4]), 7.30.

For `CNC(=O)c1cnc(Nc2cc(C)c(F)cn2)cc1Nc1cccc(C(=O)NCC(C)(C)C)c1OC` [Example 340], the pIC50 in assay [1] (setting [3]) is 6.92; in assay [2] (setting [4]) it was 6.66.

For `CNC(=O)c1cnc(Nc2cc(C)c(F)cn2)cc1Nc1cccc(C(=O)NCC2(O)CCC2)c1OC` [Example 342], the values for the pIC50 in assay [1] (setting [3]) and in assay [2] (setting [4]) were 6.89 and 6.82, respectively.

Turning to `CNC(=O)c1cnc(Nc2cc(C)c(F)cn2)cc1Nc1cccc(C(=O)NCC2(C)COC2)c1OC` [Example 343], the pIC50 in assay [1] (setting [3]) was 6.85; in assay [2] (setting [4]), 6.80.

Turning to `CNC(=O)c1cnc(Nc2cc(C)c(F)cn2)cc1Nc1cccc(C(=O)NCC(F)(F)F)c1OC` [Example 346], the pIC50 in assay [1] (setting [3]) is 7.70; in assay [2] (setting [4]), 7.40.

With `CNC(=O)c1cnc(Nc2cc(C)c(F)cn2)cc1Nc1cccc(C(=O)NCC(C)(C)O)c1OC` [Example 347], the pIC50 in assay [1] (setting [3]) was 7.15; in assay [2] (setting [4]), 6.72.

Take `CNC(=O)c1cnc(Nc2cc(C)c(F)cn2)cc1Nc1cccc(C(=O)NCCCO)c1OC` [Example 348]: the pIC50 is 6.74 in assay [1] (setting [3]) and 6.37 in assay [2] (setting [4]).

In the case of `CNC(=O)c1cnc(Nc2cc(C)c(F)cn2)cc1Nc1cccc(C(=O)NCCCOC)c1OC` [Example 349], the pIC50 in assay [1] (setting [3]) and in assay [2] (setting [4]) was 7.22 each time.

On to `CNC(=O)c1cnc(Nc2cc(C)c(F)cn2)cc1Nc1cccc(C(=O)NCC(C)C)c1OC` [Example 350], for which the pIC50 in assay [1] (setting [3]) and in assay [2] (setting [4]) was 7.10 throughout.

Turning to `CNC(=O)c1cnc(Nc2cc(C)c(F)cn2)cc1Nc1cccc(C(=O)NCc2ccccc2)c1OC` [Example 351], the pIC50 in assay [1] (setting [3]) is 7.70; in assay [2] (setting [4]), 7.22.

In the case of `CNC(=O)c1cnc(Nc2cc(C)c(F)cn2)cc1Nc1cccc(C(=O)NCCOC)c1OC` [Example 352], the pIC50 in assay [1] (setting [3]) and in assay [2] (setting [4]) was 7.70 throughout.

As to `CNC(=O)c1cnc(Nc2cc(C)c(F)cn2)cc1Nc1cccc(C(=O)NCc2c[nH]c3ccccc23)c1OC` [Example 353], the pIC50 in assay [1] (setting [3]) is 6.80; in assay [2] (setting [4]), 6.60.

As for `CNC(=O)c1cnc(Nc2cc(C)c(F)cn2)cc1Nc1cccc(C(=O)NCC2(C#N)CC2)c1OC` [Example 354], the figures for the pIC50 in assay [1] (setting [3]) and in assay [2] (setting [4]) were 6.89 and 6.82, respectively.

On to `CCNC(=O)c1cccc(Nc2cc(Nc3cc(C)c(F)cn3)ncc2C(=O)NC)c1OC` [Example 355], for which the pIC50 in assay [1] (setting [3]) and in assay [2] (setting [4]) was 7.52 in each case.

In the case of `CNC(=O)c1cnc(Nc2ccc(F)cn2)cc1Nc1cccc(C#N)c1OC` [Example 357], the values for the pIC50 in assay [1] (setting [3]) and in assay [2] (setting [4]) were 7.52 and 6.92, respectively.

Regarding `CNC(=O)c1cnc(Nc2cc(C)c(F)cn2)cc1Nc1cccc(-c2nnc(C)o2)c1OC` [Example 359], the pIC50 in assay [1] (setting [3]) is 8.00; in assay [2] (setting [4]), 7.70.

Take `CNC(=O)c1cnc(Nc2cc(C)c(F)cn2)cc1Nc1cccc(-c2nnc[nH]2)c1OC` [Example 360]: the pIC50 in assay [1] (setting [3]) is 8.11; in assay [2] (setting [4]), 7.52.

As for `CNC(=O)c1cnc(Nc2cc(C)nc(C)n2)cc1Nc1cccc(-c2nnc(C)o2)c1OC` [Example 361], the pIC50 in assay [1] (setting [3]) was 7.70; in assay [2] (setting [4]), 7.22.

As to `CNC(=O)c1cnc(Nc2cc(C)nc(C)n2)cc1Nc1cccc(-c2nnc[nH]2)c1OC` [Example 362], the pIC50 in assay [1] (setting [3]) is 8.00; in assay [2] (setting [4]), 7.70.

Take `CNC(=O)c1cnc(Nc2cc(C)c(F)cn2)cc1Nc1cccc(-c2nnc(C)[nH]2)c1OC` [Example 364, 6-((5-fluoro-4-methylpyridin-2-yl)amino)-4-((2-methoxy-3-(5-methyl-4H-1,2,4-triazol-3-yl)phenyl)amino)-N-methylnicotinamide]: the pIC50 in assay [1] (setting [3]) and in assay [2] (setting [4]) was 8.00 each time.

Turning to `CNC(=O)c1cnc(Nc2cc(C)nc(C)n2)cc1Nc1cccc(-c2nc(C)n(C)n2)c1OC` [Example 366], the pIC50 in assay [1] (setting [3]) was 8.04; in assay [2] (setting [4]), 7.70.

For the compound `CNC(=O)c1cnc(Nc2cc(C)nc(C)n2)cc1Nc1cccc(-c2nc(C)nn2C)c1OC` [Example 367], the values for the pIC50 in assay [1] (setting [3]) and in assay [2] (setting [4]) were 7.52 and 7.70, respectively.

With `CNC(=O)c1cnc(Nc2cc(C)nc(C)n2)cc1Nc1cccc(-c2nc(C)n(CCF)n2)c1OC` [Example 368], the pIC50 was 8.00 in assay [1] (setting [3]) and 8.02 in assay [2] (setting [4]).

In the case of `CNC(=O)c1cnc(Nc2cc(C)nc(C)n2)cc1Nc1cccc(-c2nc(C)n(CC(F)(F)F)n2)c1OC` [Example 370], the pIC50 in assay [1] (setting [5]) and in assay [2] (setting [6]) was 7.52 throughout.

In the case of `CNC(=O)c1cnc(Nc2cc(C)c(F)cn2)cc1Nc1cccc(-c2ncn(C)n2)c1OC` [Example 371], the pIC50 in assay [1] (setting [3]) is 8.40; in assay [2] (setting [4]), 8.31.

As to `CNC(=O)c1cnc(Nc2cc(C)nc(C)n2)cc1Nc1cccc(-c2ncn(C)n2)c1OC` [Example 372], the pIC50 in assay [1] (setting [3]) and in assay [2] (setting [4]) was 8.00 throughout.

On to `CNC(=O)c1cnc(Nc2ccc(F)cn2)cc1Nc1cccc(-c2ncn(C)n2)c1OC` [Example 373], for which the pIC50 was 8.08 in assay [1] (setting [3]) and 8.21 in assay [2] (setting [4]).

As to `CNC(=O)c1cnc(Nc2ccccn2)cc1Nc1cccc(-c2ncn(C)n2)c1OC` [Example 374], the pIC50 in assay [1] (setting [3]) was 8.16; in assay [2] (setting [4]), 8.08.

Turning to `CNC(=O)c1cnc(Nc2ccc(C(F)(F)F)cn2)cc1Nc1cccc(-c2ncn(C)n2)c1OC` [Example 375], the figures for the pIC50 in assay [1] (setting [3]) and in assay [2] (setting [4]) were 8.02 and 7.70, respectively.

On to `CNC(=O)c1cnc(Nc2ccc(C#N)cn2)cc1Nc1cccc(-c2ncn(C)n2)c1OC` [Example 376], for which the pIC50 in assay [1] (setting [3]) is 8.46; in assay [2] (setting [4]) it was 8.03.

As for `CNC(=O)c1cnc(Nc2cc(C)nc(C)n2)cc1Nc1cccc(-c2ncn(CCF)n2)c1OC` [Example 377], the pIC50 in assay [1] (setting [3]) and in assay [2] (setting [4]) was 7.70 throughout.

As to `CNC(=O)c1cnc(Nc2cc(C)nc(C)n2)cc1Nc1cccc(-c2ncn(CC(F)F)n2)c1OC` [Example 378], the pIC50 was 8.00 in assay [1] (setting [3]) and 7.30 in assay [2] (setting [4]).

As for `CNC(=O)c1cnc(Nc2cc(C)nc(C)n2)cc1Nc1cccc(-c2ncnn2CC(F)F)c1OC` [Example 379], the values for the pIC50 in assay [1] (setting [3]) and in assay [2] (setting [4]) were 7.52 and 7.10, respectively.

For `CNC(=O)c1cnc(Nc2cc(C)nc(C)n2)cc1Nc1cccc(-c2ncn(CC(F)(F)F)n2)c1OC` [Example 380], the pIC50 was 7.52 in assay [1] (setting [3]) and 7.40 in assay [2] (setting [4]).

With `CNC(=O)c1cnc(Nc2cc(C)nc(C)n2)cc1Nc1cccc(-c2ncnn2CC(F)(F)F)c1OC` [Example 381], the pIC50 in assay [1] (setting [3]) was 7.70; in assay [2] (setting [4]), 7.30.

With `CNC(=O)c1cnc(Nc2cc(C)nc(C)n2)cc1Nc1cccc(-c2ncn(CC(C)(C)O)n2)c1OC` [Example 384], the pIC50 was 6.77 in assay [1] (setting [3]) and 6.92 in assay [2] (setting [4]).

For `CNC(=O)c1cnc(Nc2cc(C)c(F)cn2)cc1Nc1cccc(-c2ncnn2C)c1OC` [Example 385], the figures for the pIC50 in assay [1] (setting [5]) and in assay [2] (setting [6]) were 7.70 and 7.15, respectively.

For `CNC(=O)c1cnc(Nc2cc(C)c(F)cn2)cc1Nc1cccc(-c2nc(C)nn2C)c1OC` [Example 386], the pIC50 in assay [1] (setting [5]) is 8.00; in assay [2] (setting [6]), 7.70.
